According to patent publication US10844045B2, “Pharmaceutical salts N-(2-(2-(dimethylamino)ethoxy)-4-methoxy-5-((4-(1-methyl-1H-indol-3-yl)pyrimidin-2-yl)amino)phenyl)acrylamide and crystalline forms thereof” (Beta Pharma, Inc., priority 2016, dated 2020):
Where a name gives a salt, the structure may show the parent alone. Read-outs that look alike come from different tables or passages of the source.

Tests used:
[1] = Dynamic vapor sorption (DVS); type: physicochemical; details: for hygroscopicity classification according to DVS results / weight gain (DVS): from 0 to 80% RH
Solubility of salt forms = type: physicochemical; details: for Final pH: final pH of the solubility test
[2] = test system: kinase domain of the T790M double mutant; details: cited from earlier work

SMILES | DVS Sorption [1] [%] | Solubility (Solubility of salt forms) [µg/mL] | Final pH (Solubility of salt forms) | inhibition of the kinase domain of the T790M double mutant [2] | hygroscopicity classification according to DVS results [1] | weight gain (DVS) [1] [%] | DVS Sorption ([1]; listed as 2 (Form 2A)) [%] | Solubility (Solubility of salt forms; read-out: Solubility) [µg/mL]
C=CC(=O)Nc1cc(Nc2nccc(-c3cn(C)c4ccccc34)n2)c(OC)cc1OCCN(C)C [3 (Form 2B), N-(2-(2-(Dimethylamino)ethoxy)-4-methoxy-5-((4-(1-methyl-1H-indol-3-yl)pyrimidin-2-yl)amino)phenyl)acrylamide methanesulfonate (1:1)] | 14.44 |  |  |  |  |  |  | 
C=CC(=O)Nc1cc(Nc2nccc(-c3cn(C)c4ccccc34)n2)c(OC)cc1OCCN(C)C [Compound 1, N-(2-(2-(Dimethylamino)ethoxy)-4-methoxy-5-((4-(1-methyl-1H-indol-3-yl)pyrimidin-2-yl)amino)phenyl)acrylamide] |  | 50 | 6.2 | effectively inhibits |  |  |  | 
C=CC(=O)Nc1cc(Nc2nccc(-c3cn(C)c4ccccc34)n2)c(OC)cc1OCCN(C)C [Compound 2, N-(2-(2-(Dimethylamino)ethoxy)-4-methoxy-5-((4-(1-methyl-1H-indol-3-yl)pyrimidin-2-yl)amino)phenyl)acrylamide methanesulfonate (1:1)] |  | >53000 | 4.9 |  | hygroscopic | 14.44 | 0.91 | 
C=CC(=O)Nc1cc(Nc2nccc(-c3cn(C)c4ccccc34)n2)c(OC)cc1OCCN(C)C.Cl [Compound 3, N-(2-(2-(Dimethylamino)ethoxy)-4-methoxy-5-((4-(1-methyl-1H-indol-3-yl)pyrimidin-2-yl)amino)phenyl)acrylamide hydrochloride (1:1)] | 0.76 |  | 6.0 |  | slightly hygroscopic | 0.76 |  | 810
C=CC(=O)Nc1cc(Nc2nccc(-c3cn(C)c4ccccc34)n2)c(OC)cc1OCCN(C)C [Compound 4, N-(2-(2-(Dimethylamino)ethoxy)-4-methoxy-5-((4-(1-methyl-1H-indol-3-yl)pyrimidin-2-yl)amino)phenyl)acrylamide sulfate (1:1)] | 10.60 | >79000 | 2.4 |  | hygroscopic | 10.60 |  | 
C=CC(=O)Nc1cc(Nc2nccc(-c3cn(C)c4ccccc34)n2)c(OC)cc1OCCN(C)C.Cc1ccc(S(=O)(=O)O)cc1 [Compound 5, N-(2-(2-(Dimethylamino)ethoxy)-4-methoxy-5-((4-(1-methyl-1H-indol-3-yl)pyrimidin-2-yl)amino)phenyl)acrylamide p-toluenesulfonate (1:1)] | 1.86 |  | 5.8 |  | slightly hygroscopic | 1.86 |  | 530
C=CC(=O)Nc1cc(Nc2nccc(-c3cn(C)c4ccccc34)n2)c(OC)cc1OCCN(C)C [Compound 6, N-(2-(2-(Dimethylamino)ethoxy)-4-methoxy-5-((4-(1-methyl-1H-indol-3-yl)pyrimidin-2-yl)amino)phenyl)acrylamide citrate (1:1)] |  | 6900 | 4.6 |  |  |  |  | 
